This passage reports Ki results from patent US12559529B2, “NPY2 receptor agonists” (Boehringer Ingelheim International GmbH, priority 2019, dated 2026).

*1 amine or outer side, *2 acyl side, *3 side chain or, on linkers, in order; H or OH if unused. Where a SMILES comes first, the peptide text is derived from it. Side-chain parts run from the residue outwards. The star is where a group is joined. C18 diacid = O=C(O)CCCCCCCCCCCCCCCCC(=O)*; γGlu = O=C(O)[C@H](CCC(=O)[*:2])N[*:1]; Isovaleryl = CC(C)CC(=O)*; AEEA = NCCOCCOCC(=O)O

The experiment has as its target T1, Human Neuropeptide Y2 Receptor (Homo sapiens, UniProt P49146).
T1 construct: purchased CHEMICON HTS066M
T1 sequence (P49146 1-381): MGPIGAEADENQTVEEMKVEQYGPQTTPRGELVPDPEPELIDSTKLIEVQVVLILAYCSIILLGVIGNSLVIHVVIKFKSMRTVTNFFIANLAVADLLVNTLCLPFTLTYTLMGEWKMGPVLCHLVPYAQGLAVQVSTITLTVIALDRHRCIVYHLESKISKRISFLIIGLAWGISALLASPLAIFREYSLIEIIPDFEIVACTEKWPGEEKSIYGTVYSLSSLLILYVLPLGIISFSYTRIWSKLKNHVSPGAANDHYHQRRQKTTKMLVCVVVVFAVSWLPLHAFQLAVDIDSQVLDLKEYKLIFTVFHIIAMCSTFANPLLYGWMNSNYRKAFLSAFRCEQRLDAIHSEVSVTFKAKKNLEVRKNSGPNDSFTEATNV
Briefly: Radioligand binding competition assay (RLB). The note with it: Table 3; human 125I-PYY (1-36) 0.02 nM, Y2 receptor membranes; read-out: Ki. Put shortly: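 Filtration format; Y2R membrane prep 0.5 μg/well; buffer 50 mM HEPES/5 mM MgCl2/1 mM CaCl2/0.2% ovalbumin pH 7.4; 2 h RT, shaking. Harvest on PEI-soaked GF/C, ice-cold HEPES/500 mM NaCl washes, scintillation count. IC50 by nonlinear fit.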

As for `CC(C)CC(=O)N[C@@H](C)C(=O)N1CCC[C@H]1C(=O)N[C@@H](CCC(=O)O)C(=O)N[C@@H](CCCCNC(=O)COCCOCCNC(=O)COCCOCCNC(=O)CC[C@H](NC(=O)CCCCCCCCCCCCCCCCC(=O)O)C(=O)O)C(=O)N1CCC[C@H]1C(=O)N[C@@H](CCC(=O)O)C(=O)N[C@@H](CCC(=O)O)C(=O)N[C@@H](CC(=O)O)C(=O)N[C@@H](C)C(=O)N[C@H](C(=O)N1CCC[C@H]1C(=O)N[C@@H](CCC(=O)O)C(=O)N[C@@H](CCC(=O)O)C(=O)N[C@H](C(=O)N[C@@H](CCC(N)=O)C(=O)N[C@@H](CCCNC(=N)N)C(=O)N[C@@H](Cc1ccc(O)cc1)C(=O)N[C@@H](Cc1ccc(O)cc1)C(=O)N[C@H](C(=O)N[C@@H](CO)C(=O)N[C@@H](CC(C)C)C(=O)N[C@@H](CCCNC(=N)N)C(=O)N[C@@H](Cc1c[nH]cn1)C(=O)N[C@@H](Cc1ccc(O)cc1)C(=O)N[C@@H](Cc1ccc(O)cc1)C(=O)N[C@@H](CC(N)=O)C(=O)N[C@@H](Cc1c[nH]c2ccccc12)C(=O)N[C@@H](CC(C)C)C(=O)N[C@H](C(=O)N[C@@H](CCCNC(=N)N)C(=O)N[C@@H](CCC(N)=O)C(=O)N[C@@H](CCCNC(=N)N)C(=O)N[C@@H](Cc1ccc(O)cc1)C(N)=O)[C@@H](C)O)C(C)C)[C@@H](C)O)[C@@H](C)O` [Compound 40, N{alpha-4}-(3-methylbutanoyl)-N{epsilon-7}-[2-(2-{2-[2-(2-{2-[(4S)-4-carboxy-4-(17-carboxyheptadecanamido)butanamido]ethoxy}ethoxy)acetamido]ethoxy}ethoxy)acetamido]-[4A,7K,9E,13T,17T,18Q,22V,28Y,30W,31L]hPYY (4-36)], the Ki turned out to be 1.21 nM.

With `CC(C)CC(=O)N[C@@H](C)C(=O)N1CCC[C@H]1C(=O)N[C@@H](CCC(=O)O)C(=O)N[C@@H](CCCCNC(=O)COCCOCCNC(=O)COCCOCCNC(=O)CC[C@H](NC(=O)CCCCCCCCCCCCCCCCC(=O)O)C(=O)O)C(=O)N1CCC[C@H]1C(=O)N[C@@H](CCC(=O)O)C(=O)N[C@@H](CCC(=O)O)C(=O)N[C@@H](C)C(=O)N[C@@H](C)C(=O)N[C@@H](CO)C(=O)N1CCC[C@H]1C(=O)N[C@@H](CCC(=O)O)C(=O)N[C@@H](CCC(=O)O)C(=O)N[C@@H](CC(C)C)C(=O)N[C@@H](CCC(N)=O)C(=O)N[C@@H](CCCNC(=N)N)C(=O)N[C@@H](Cc1ccc(O)cc1)C(=O)N[C@@H](Cc1ccc(O)cc1)C(=O)N[C@H](C(=O)N[C@@H](CO)C(=O)N[C@H](C(=O)N[C@@H](CCCNC(=N)N)C(=O)N[C@@H](Cc1c[nH]cn1)C(=O)N[C@@H](Cc1ccc(O)cc1)C(=O)N[C@@H](Cc1ccc(O)cc1)C(=O)N[C@@H](CC(N)=O)C(=O)N[C@@H](Cc1c[nH]c2ccccc12)C(=O)N[C@@H](CC(C)C)C(=O)N[C@H](C(=O)N[C@@H](CCCNC(=N)N)C(=O)N[C@@H](CCC(N)=O)C(=O)N[C@@H](CCCNC(=N)N)C(=O)N[C@@H](Cc1ccc(O)cc1)C(N)=O)[C@@H](C)O)[C@@H](C)O)C(C)C` [Compound 42, N{alpha-4}-(3-methylbutanoyl)-N{epsilon-7}-[2-(2-{2-[2-(2-{2-[(4S)-4-carboxy-4-(17-carboxyheptadecanamido)butanamido]ethoxy}ethoxy)acetamido]ethoxy}ethoxy)acetamido]-[4A,7K,9E,11A,18Q,22V,24T,28Y,30W,31L]hPYY (4-36)] (Isovaleryl-APEK([AEEA-AEEA-γGlu-C18 diacid])PEEAASPEELQRYYVSTRHYYNWLTRQRY-NH2), the Ki worked out at 5.92 nM.

As for `CC(C)CC(=O)N[C@@H](C)C(=O)N1CCC[C@H]1C(=O)N[C@@H](CCC(=O)O)C(=O)N[C@@H](CCCCNC(=O)COCCOCCNC(=O)COCCOCCNC(=O)CC[C@H](NC(=O)CCCCCCCCCCCCCCCCC(=O)O)C(=O)O)C(=O)N1CCC[C@H]1C(=O)N[C@@H](CCC(=O)O)C(=O)N[C@@H](C)C(=O)N1CCC[C@H]1C(=O)N[C@@H](C)C(=O)N[C@@H](CO)C(=O)N1CCC[C@H]1C(=O)N[C@@H](CCC(=O)O)C(=O)N[C@@H](CCC(=O)O)C(=O)N[C@@H](CC(C)C)C(=O)N[C@@H](CCC(N)=O)C(=O)N[C@@H](CCCNC(=N)N)C(=O)N[C@@H](Cc1ccc(O)cc1)C(=O)N[C@@H](Cc1ccc(O)cc1)C(=O)N[C@H](C(=O)N[C@@H](CO)C(=O)N[C@@H](CC(C)C)C(=O)N[C@@H](CCCNC(=N)N)C(=O)N[C@@H](Cc1c[nH]cn1)C(=O)N[C@@H](Cc1ccc(O)cc1)C(=O)N[C@@H](Cc1ccc(O)cc1)C(=O)N[C@@H](CC(N)=O)C(=O)N[C@@H](Cc1c[nH]c2ccccc12)C(=O)N[C@@H](CC(C)C)C(=O)N[C@H](C(=O)N[C@@H](CCCNC(=N)N)C(=O)N[C@@H](CCC(N)=O)C(=O)N[C@@H](CCCNC(=N)N)C(=O)N[C@@H](Cc1ccc(O)cc1)C(N)=O)[C@@H](C)O)C(C)C` [Compound 43, N{alpha-4}-(3-methylbutanoyl)-N{epsilon-7}-[2-(2-{2-[2-(2-{2-[(4S)-4-carboxy-4-(17-carboxyheptadecanamido)butanamido]ethoxy}ethoxy)acetamido]ethoxy}ethoxy)acetamido]-[4A,7K,9E,10A,11P,18Q,22V,28Y,30W,31L]hPYY (4-36)] (Isovaleryl-APEK([AEEA-AEEA-γGlu-C18 diacid])PEAPASPEELQRYYVSLRHYYNWLTRQRY-NH2), the Ki is 0.4 nM.

For `CC[C@H](C)[C@H](NC(=O)[C@H](Cc1c[nH]c2ccccc12)NC(=O)[C@H](CC(N)=O)NC(=O)[C@H](Cc1ccc(O)cc1)NC(=O)[C@H](Cc1ccc(O)cc1)NC(=O)[C@H](Cc1c[nH]cn1)NC(=O)[C@H](CCCNC(=N)N)NC(=O)[C@H](CC(C)C)NC(=O)[C@H](CO)NC(=O)[C@@H](NC(=O)[C@H](Cc1ccc(O)cc1)NC(=O)[C@H](Cc1ccc(O)cc1)NC(=O)[C@H](CCCNC(=N)N)NC(=O)[C@H](CCC(N)=O)NC(=O)[C@H](CC(C)C)NC(=O)[C@H](CCC(=O)O)NC(=O)[C@H](CCC(=O)O)NC(=O)[C@@H]1CCCN1C(=O)[C@H](CO)NC(=O)[C@H](C)NC(=O)[C@H](CCC(=O)O)NC(=O)[C@H](CCC(=O)O)NC(=O)[C@H](CCC(=O)O)NC(=O)[C@@H]1CCCN1C(=O)[C@H](CCCCNC(=O)COCCOCCNC(=O)COCCOCCNC(=O)CC[C@H](NC(=O)CCCCCCCCCCCCCCCCC(=O)O)C(=O)O)NC(=O)[C@H](CCC(=O)O)NC(=O)[C@@H]1CCCN1C(=O)[C@H](C)NC(=O)CC(C)C)C(C)C)C(=O)N[C@H](C(=O)N[C@@H](CCCNC(=N)N)C(=O)N[C@@H](CCC(N)=O)C(=O)N[C@@H](CCCNC(=N)N)C(=O)N[C@@H](Cc1ccc(O)cc1)C(N)=O)[C@@H](C)O` [Compound 44, N{alpha-4}-(3-methylbutanoyl)-N{epsilon-7}-[2-(2-{2-[2-(2-{2-[(4S)-4-carboxy-4-(17-carboxyheptadecanamido)butanamido]ethoxy}ethoxy)acetamido]ethoxy}ethoxy)acetamido]-[4A,7K,9E,11E,18Q,22V,28Y,30W,31I]hPYY (4-36)], the inhibitory constant (Ki) was found to be 4.44 nM.

With `CC(C)CC(=O)N[C@@H](C)C(=O)N1CCC[C@H]1C(=O)N[C@@H](CCC(=O)O)C(=O)N[C@@H](CCCCNC(=O)COCCOCCNC(=O)COCCOCCNC(=O)CC[C@H](NC(=O)CCCCCCCCCCCCCCCCC(=O)O)C(=O)O)C(=O)N1CCC[C@H]1C(=O)N[C@@H](CCC(=O)O)C(=O)N[C@@H](CCC(=O)O)C(=O)N[C@@H](CCC(=O)O)C(=O)N[C@@H](C)C(=O)N[C@@H](CO)C(=O)N1CCC[C@H]1C(=O)N[C@@H](CCC(=O)O)C(=O)N[C@@H](CO)C(=O)N[C@@H](CC(C)C)C(=O)N[C@@H](CCC(N)=O)C(=O)N[C@@H](CCCNC(=N)N)C(=O)N[C@@H](Cc1ccc(O)cc1)C(=O)N[C@@H](Cc1ccc(O)cc1)C(=O)N[C@H](C(=O)N[C@@H](CO)C(=O)N[C@@H](CC(C)C)C(=O)N[C@@H](CCCNC(=N)N)C(=O)N[C@@H](Cc1c[nH]cn1)C(=O)N[C@@H](Cc1ccc(O)cc1)C(=O)N[C@@H](Cc1ccc(O)cc1)C(=O)N[C@@H](CC(N)=O)C(=O)N[C@@H](Cc1c[nH]c2ccccc12)C(=O)N[C@@H](CC(C)C)C(=O)N[C@H](C(=O)N[C@@H](CCCNC(=N)N)C(=O)N[C@@H](CCC(N)=O)C(=O)N[C@@H](CCCNC(=N)N)C(=O)N[C@@H](Cc1ccc(O)cc1)C(N)=O)[C@@H](C)O)C(C)C` [Compound 45, N{alpha-4}-(3-methylbutanoyl)-N{epsilon-7}-[2-(2-{2-[2-(2-{2-[(4S)-4-carboxy-4-(17-carboxyheptadecanamido)butanamido]ethoxy}ethoxy)acetamido]ethoxy}ethoxy)acetamido]-[4A,7K,9E,11E,16S,18Q,22V,28Y,30W,31L]hPYY (4-36)] (Isovaleryl-APEK([AEEA-AEEA-γGlu-C18 diacid])PEEEASPESLQRYYVSLRHYYNWLTRQRY-NH2), the Ki came to 3.97 nM.

For orientation: Ki means the equilibrium dissociation constant of an inhibitor or competing ligand from its target.
